# Experimental data from ChEMBL document CHEMBL5137017, “Identification of NVP-CLR457 as an Orally Bioavailable Non-CNS-Penetrant pan-Class IA Phosphoinositol-3-Kinase Inhibitor” (J Med Chem, 2022).
# Where “and” joins values, the source holds several entries; their conditions need not be identical. Identical values can stand only once.
# Legend:
# [1] = molecular target: T1, Serine/threonine-protein kinase mTOR (Homo sapiens, UniProt P42345); test: Displacement of Alexa Fluor labelled Tracer-314 from human N-terminal GST-tagged mTOR incubated for 1 hr by TR-FRET assay
# [2] = cells; details: Rattus norvegicus, Rat1, 1 h
# [3] = molecular target: T2, Tubulin (Homo sapiens) (UniProt P68371+Q9H4B7+P0DPH7+P68366+Q13509+Q71U36+P04350+Q3ZCM7+P07437+P68363+Q9BQE3+Q6PEY2+Q13885+Q9BVA1+Q9BUF5); test: Binding affinity to tubulin in human A2058 cells assessed as condensed DNA score at 5 uM measured after 6 hrs by DiffQuick staining based microscopic analysis; type: cell-based
# [4] = molecular target: T2, Tubulin (Homo sapiens); test: Binding affinity to tubulin in human A2058 cells assessed as condensed DNA score at 5 uM measured after 24 hrs by DiffQuick staining based microscopic analysis; type: cell-based
# [5] = 1-octanol, logP of the compound at pH 7.4; type: physicochemical
# [6] = Brain to blood ratio in OF1 mouse at 1 mg/kg, iv measured at 5 mins post dose by LC-MS/MS analysis; type: ADME, organism-based; details: brain and blood, read-out: BBR
# [7] = Brain to blood ratio in OF1 mouse at 1 mg/kg, iv measured at 1 hr post dose by LC-MS/MS analysis; type: ADME, organism-based; details: brain and blood, read-out: BBR
# [8] = molecular target: T1, Serine/threonine-protein kinase mTOR; test: Binding affinity to human N-terminal GST-tagged mTOR assessed as phosphorylated 4EBP1 by TR-FRET assay
# [9] = Half life in Sprague-Dawley rat at 3 mg/kg, po or iv measured upto 24 hrs by LC-MS/MS analysis; type: ADME, organism-based; details: in vivo
# [10] = AUC in Sprague-Dawley rat at 1 mg/kg, iv measured for 0.083 to 48 hrs by LC-MS/MS analysis; type: ADME, organism-based; parameters: time upper 48 hrs, dose 1 mg/kg, time lower 0.083 hrs, route iv; details: in vivo
# [11] = Stability in human liver microsomes assessed as hepatic extraction preincubated for 3 mins followed by NADPH addition and measured after 60 mins; type: ADME, Microsome; details: read-out: ERH
# [12] = Stability in rat liver microsomes assessed as hepatic extraction preincubated for 3 mins followed by NADPH addition and measured after 60 mins; type: ADME, Microsome; details: read-out: ERH
# [13] = Volume of distribution at steady state in Sprague-Dawley rat at 3 mg/kg, po or iv measured upto 24 hrs by LC-MS/MS analysis; type: ADME, organism-based; details: in vivo
# [14] = Oral bioavailability in Sprague-Dawley rat at 3 mg/kg measured for 0.25 to 24 hrs by LC-MS/MS analysis; type: ADME, organism-based; details: in vivo, time 0.25-24 hrs
# [15] = Drug concentration in OF1 mouse blood at 1 mg/kg, iv measured at 1 hr post dose by LC-MS/MS analysis; type: ADME, organism-based; details: whole blood, read-out: Ct
# [16] = Drug concentration in OF1 mouse blood at 1 mg/kg, iv measured at 5 mins post dose by LC-MS/MS analysis; type: ADME, organism-based; details: whole blood, read-out: Ct
# [17] = Stability in mouse liver microsomes assessed as hepatic extraction preincubated for 3 mins followed by NADPH addition and measured after 60 mins; type: ADME, Microsome; details: time 63 min, read-out: ERH
# [18] = Drug concentration in OF1 mouse brain at 1 mg/kg, iv measured at 5 mins post dose by LC-MS/MS analysis; type: ADME, organism-based; details: in vivo
# [19] = Drug concentration in OF1 mouse brain at 1 mg/kg, iv measured at 1 hr post dose by LC-MS/MS analysis; type: ADME, organism-based; details: in vivo
smiles,measurement,setting,value
C[C@H]1[C@H](CO)OC(=O)N1c1nc(-c2cnc(N)nc2C(F)(F)F)cc(N2CCOCC2)n1,IC50,[1],5110 nM
same,IC50,[2],63 nM
Nc1cc(C(F)(F)F)c(-c2cc(N3CCN(c4ccccc4)C3=O)nc(N3CCOCC3)n2)cn1,Activity,[3],< 2%
same,IC50,[1],6200 nM
same,Activity,[4],< 2%
same,IC50,[2],1460 nM
Nc1ncc(-c2cc(N3CCOC3=O)nc(N3CCOCC3)n2)c(C(F)(F)F)n1,IC50,[1],> 9100 nM
same,IC50,[2],137 nM
Nc1cc(C(F)(F)F)c(-c2cc(N3CCOC3=O)nc(N3CCOCC3)n2)cn1,logD,[5],2.7
same,IC50,[1],6800 nM
same,IC50,[2],1070 nM
Nc1ncc(-c2cc(N3CCOCC3)nc(N3C(=O)OC[C@@H]3CO)n2)c(C(F)(F)F)n1,IC50,[1],3880 nM
same,IC50,[2],63 nM
C[C@H]1COC(=O)N1c1nc(-c2cnc(N)cc2C(F)(F)F)cc(N2CCOCC2)n1,Kp at 5 min,[6],0.11
same,IC50,[2],1760 nM
same,Kp at 1 h,[7],0.11
Nc1cc(C(F)(F)F)c(-c2cc(N3CCNC3=O)nc(N3CCOCC3)n2)cn1,logD,[5],2.6
same,IC50,[2],431 nM
Nc1ncc(-c2cc(N3CCOCC3)nc(N3CCOCC3)n2)c(C(F)(F)F)n1,Activity,[3],> 12%
same,IC50,[1],2070 nM
same,IC50,[8],6310 nM
same,Activity,[4],> 12%
same,IC50,[2],191 nM
N#Cc1cc(N)ncc1-c1cc(N2CCOC(CCO)C2)nc(N2CCOCC2)n1 (racemic),Kp at 5 min,[6],0.2
same,IC50,[2],2520 nM
same,Kp at 1 h,[7],0.12
Nc1ncc(-c2cc(N3CCOCC3)nc(N3C[C@H](CO)OC3=O)n2)c(C(F)(F)F)n1,IC50,[1],2180 nM
same,IC50,[2],111 nM
Nc1ncc(-c2cc(N3CCOCC3)nc(N3C(=O)OC[C@H]3CO)n2)c(C(F)(F)F)n1,IC50,[1],5940 nM
same,IC50,[2],180 nM
C[C@@H]1OC(=O)N(c2nc(-c3cnc(N)nc3C(F)(F)F)cc(N3CCOCC3)n2)[C@H]1CO,half-life,[9],5.2 h
same,AUC,[10],0.708 µM·h
same,hepatic extraction ratio at 1 h,[11],0.78
same,IC50,[1],2580 nM
same,hepatic extraction ratio at 1 h,[12],0.49
same,Vdss,[13],3.9 L/kg
same,bioavailability,[14],23%
same,IC50,[2],37 nM
Cn1c(=O)n(-c2ccc(C(C)(C)C#N)cc2)c2c3cc(-c4cnc5ccccc5c4)ccc3ncc21 [DACTOLISIB],Activity,[3],< 2%
same,Activity,[4],< 2%
same,IC50,[2],14 nM
C[C@]1(CO)COC(=O)N1c1nc(-c2cnc(N)nc2C(F)(F)F)cc(N2CCOCC2)n1,IC50,[1],3610 nM
same,IC50,[2],172 nM
Nc1cc(C(F)(F)F)c(-c2cc(NC(CO)Cc3ccccc3)nc(N3CCOCC3)n2)cn1 (racemic),Kp at 5 min,[6],1.2
same,IC50,[2],9020 nM
same,Kp at 1 h,[7],0.93
C[C@H]1[C@@H](CO)OC(=O)N1c1nc(-c2cnc(N)nc2C(F)(F)F)cc(N2CCOCC2)n1,IC50,[1],1720 nM
same,IC50,[2],30 nM
C[C@H](O)[C@@H]1COC(=O)N1c1nc(-c2cnc(N)nc2C(F)(F)F)cc(N2CCOCC2)n1,IC50,[1],1340 nM
same,IC50,[2],83 nM
CC1(C)OC(=O)N(c2nc(-c3cnc(N)nc3C(F)(F)F)cc(N3CCOCC3)n2)[C@H]1CO,IC50,[2],81 nM
C[C@H]1OC(=O)N(c2nc(-c3cnc(N)nc3C(F)(F)F)cc(N3CCOCC3)n2)[C@H]1CC#N,IC50,[1],3940 nM
same,IC50,[2],100 nM
CS(=O)(=O)N1CCN(Cc2cc3nc(-c4cccc5[nH]ncc45)nc(N4CCOCC4)c3s2)CC1 [PICTILISIB],Activity,[3],< 2%
same,Activity,[4],< 2%
same,IC50,[2],44 nM
Nc1cc(C(F)(F)F)c(-c2cc(N3CCS(=O)(=O)CC3)nc(N3CCOCC3)n2)cn1,Activity,[3],< 2%
same,IC50,[1],9100 nM and > 9100 nM
same,IC50,[8],> 9100 nM
same,Activity,[4],< 2%
same,IC50,[2],5220 nM
Nc1cc(C(F)(F)F)c(-c2cc(N3CCCCC3=O)nc(N3CCOCC3)n2)cn1,Activity,[3],< 2%
same,IC50,[1],5060 nM
same,Activity,[4],< 2%
same,IC50,[2],1040 nM
Nc1cc(C(F)(F)F)c(-c2cc(N3CCOCC3)nc(N3CCOCC3)c2)cn1,Activity,[3],6%
same,IC50,[8],> 9100 nM
same,Activity,[4],> 12%
same,IC50,[2],2830 nM
C[C@H]1OC(=O)N(c2nc(-c3cnc(N)nc3C(F)(F)F)cc(N3CCOCC3)n2)[C@H]1CN1CC[S+]([O-])CC1,IC50,[2],> 10000 nM
CNC(=O)N(CCO)c1cc(-c2cnc(N)cc2C(F)(F)F)nc(N2CCOCC2)n1,Kp at 5 min,[6],0.23
same,IC50,[2],3660 nM
same,Kp at 1 h,[7],0.12
C[C@H]1COC(=O)N1c1nc(-c2cnc(N)nc2C(F)(F)F)cc(N2CCOCC2)n1,half-life,[9],1.2 h
same,AUC,[10],0.762 µM·h
same,hepatic extraction ratio at 1 h,[11],0.54
same,IC50,[1],2880 nM
same,concentration at 1 h,[15],616 nM
same,hepatic extraction ratio at 1 h,[12],0.67
same,Vdss,[13],4.4 L/kg
same,concentration at 5 min,[16],1640 nM
same,hepatic extraction ratio at 1 h,[17],0.27
same,Kp at 5 min,[6],1.11
same,Ct,[18],1813 pmol/g
same,bioavailability,[14],46%
same,IC50,[2],28 nM
same,Ct,[19],553 pmol/g
same,Kp at 1 h,[7],0.9
CNC(=O)N(C)c1cc(-c2cnc(N)cc2C(F)(F)F)nc(N2CCOCC2)n1,Kp at 5 min,[6],1.1
same,IC50,[2],1300 nM
same,Kp at 1 h,[7],0.86
COc1ccc2c(c1)OCCN2c1cc(-c2cnc(N)nc2)nc(N2CCOCC2)n1,Activity,[3],> 12%
same,IC50,[8],> 9100 nM
same,Activity,[4],6%
same,Kp at 5 min,[6],3.23
same,IC50,[2],239 nM
same,Kp at 1 h,[7],1.91
Nc1ncc(-c2cc(N3CCOCC3)nc(N3C(=O)O[C@@H]4COC[C@@H]43)n2)c(C(F)(F)F)n1,IC50,[1],2000 nM
same,IC50,[2],61 nM
Nc1ncc(-c2cc(N3CCOCC3)nc(N3CCOCC3)n2)c(=O)[nH]1,Activity,[3],< 2%
same,IC50,[8],440 nM
same,Activity,[4],< 2%
same,IC50,[2],481 nM
Nc1ncc(-c2cc(N3CCCOC3=O)nc(N3CCOCC3)n2)c(C(F)(F)F)n1,IC50,[2],152 nM
Nc1cc(C(F)(F)F)c(-c2cc(N3CCCC3=O)nc(N3CCOCC3)n2)cn1,logD,[5],2.1
same,IC50,[1],4970 nM
same,IC50,[2],267 nM
Nc1cc(C(F)(F)F)c(-c2cc(N3CCOC[C@H]3CO)nc(N3CCOCC3)n2)cn1,Kp at 5 min,[6],0.31
same,IC50,[2],8020 nM
same,Kp at 1 h,[7],0.21
Nc1ncc(-c2cc(N3CCOCC3)nc(N3C[C@@H](CO)OC3=O)n2)c(C(F)(F)F)n1,IC50,[1],> 9100 nM
same,IC50,[2],101 nM
Nc1cc(C(F)(F)F)c(-c2cc(N3CCOC(c4ccccc4)C3)nc(N3CCOCC3)n2)cn1 (racemic),Kp at 5 min,[6],4.89
same,IC50,[2],2770 nM
same,Kp at 1 h,[7],3.73
